The text below walks through data of patent publication US11512057B2, “Unsaturated hydrocarbon pyrimidine thioether compounds and preparation method and application thereof” (Zhejiang University of Technology, priority 2018, dated 2022).

By mortality is commonly meant the share of the test organisms that died. Low values mean more survivors, high ones fewer survivors.

What all share (assay type): in vivo
One assay deals with armyworm. As to the kind of experiment: Activity test of armyworm, leaf-dipping method. The settings on record: 500 mg/L, 3rd instar larvae, after 3 days. The protocol:
A certain amount of the original drug was weighed by an analytical balance (0.0001 g), and dissolved in DMF containing 1% Tween-80 emulsifier to prepare a 1% mother liquor, which was then diluted with distilled water for later use.
The insecticidal efficacy was evaluated by a leaf-dipping method with the armyworm as a target and a spray method with Tetranychus cinnabarinus and Aphis craccivora Koch as a target.
Leaf-dipping method: the target for the test was the armyworm, and corn leaves in an appropriate amount were fully infiltrated in the prepared liquid, then dried naturally, placed in culture dishes with filter papers, inoculated with 3rd instar larvae of the armyworm at 10 heads/dish, and placed in an observation room and cultured at 24˜27° C. the results were investigated after 3 days. A brush was used to touch the insect bodies, and the unresponsive were regarded as dead insects.

In assay [1] the test system is powdery mildew of cucumber. As to the kind of experiment: Prevention experiment of powdery mildew of cucumber, living pot assay. The following applies: 200 ppm; cucumber seedlings, about 10 days. On the procedure: The living pot assay method was adopted, that is, the sample of the test compound was dissolved with a small amount of DMF solvent (the kind of solvent such as acetone, methanol, DMF, etc., is selected according to the solvency of the sample, and the volume ratio of the solvent amount to the spray amount is equal to or less than 0.05), diluted with water containing 0.1% Tween 80, and formulated into the test solution with a desired concentration. Cucumber seedlings at leaf period with the same growth period was sprayed evenly with the prepared agent, and aired. Each concentration was one treatment, each treatment was repeated 3 times, a control agent and a water of blank control were set separately. The fresh powdery mildew spores on the leaves of cucumbers were washed and filtered with double gauze to prepare a suspension with a concentration of about 100,000 spores/mL. The samples were inoculated by spraying, the inoculated samples were moved into artificial climate, and relative humidity was maintained at 60-70%, the temperature was maintained at 23° C., after about 10 days, grading investigation was carried out according to the morbidity of the blank control, control effect was calculated according to disease index.

Assay [2] relates to adults of Tetranychus cinnabarinus. As to the kind of experiment: Acaricidal comparison, spray method on adults of Tetranychus cinnabarinus. On the procedure:
Spray method: the test target was Tetranychus cinnabarinus, that is, broad bean leaves inoculated with adults of Tetranychus cinnabarinus were placed under the spray treatment of Potter spray towers. After treatment, the Tetranychus cinnabarinus was placed in an observation room and cultured at 25˜27° C., and the results were investigated after 48 hours. The brush was used to touch the insect body, and the unresponsive were regarded as dead insects. The test concentrations of the compounds on killing cinnabarin were 50, 25, 12.5, 6.25, 3.125 mg/L.

In assay [3] the test system is eggs of Tetranychus cinnabarinus. As to the kind of experiment: Acaricidal comparison, egg test. On the procedure:
Egg test: each treated broad bean leave was inoculated with 10 adults of Tetranychus cinnabarinus, and the adults were removed after the eggs were laid for 24 hours. The leaves with eggs were sprayed under Potter spray towers. After treatment, the eggs of Tetranychus cinnabarinus were placed in an observation room and cultured at 25˜27° C. And the test was examined until the eggs under the blank treatment completely hatched out. The concentration of the compound that kills the eggs of Tetranychus cinnabarinus was 100, 50, 25, 12.5, 6.25 mg/L.

The test system of assay [4] is nymphs of Tetranychus cinnabarinus. Nature of the assay: Acaricidal comparison, nymph test. On the procedure: Nymph test: broad bean leaves were inoculated with 10 adult mites, and the adults were removed after laying eggs for 24 hours. The eggs were fed in insect rearing room, and when they hatched into nymphs, they were sprayed with a sprayer. After treatment, the leaves with the nymphs were placed in an observation room and cultured at 25-27° C., and the results were investigated after 48 hours. A brush was used to touch the insect bodies, and the unresponsive were regarded as the dead. The test concentrations of the compound on killing cinnabarin were 5, 2.5, 1.25, 0.625, 0.3125 mg/L.

As for `CO/C=C(/C(=O)OC)c1ccccc1COc1cc(C(F)(F)F)nc(SCC=C(Cl)Cl)n1` [Compound 67], the “lethal rate on armyworm larvae” value with armyworm is on record as 100%. Moreover, the “effect of preventing powdery mildew” value in assay [1] is given as 100%. Besides, in assay [2] (50, 25, and 12.5 mg/L), the “lethal rate against adult mites compared with fluacrypyrim” value is reported as “better than that of fluacrypyrim”. The “lethal rate on eggs of Tetranychus cinnabarinus compared with fluacrypyrim” value in assay [3] (100, 50, 25, 12.5, 6.25 mg/L) is “better than that of fluacrypyrim”. Further, in assay [4] (5, 2.5, 1.25, 0.625, 0.3125 mg/L), the “lethal rate on nymphs of Tetranychus cinnabarinus compared with fluacrypyrim” value is “better than that of fluacrypyrim”.
For the compound `CO/C=C(/C(=O)OC)c1ccccc1COc1cc(C(F)(F)F)nc(OC(C)C)n1` [Fluacrypyrim, fluacrypyrim], in assay [2] (Tetranychus cinnabarinus, 48 h), the mortality at 3.125 µg/mL was 39.5%, the mortality at 6.25 µg/mL turned out to be 64.6%, the mortality at 12.5 µg/mL came out at 70.6% and the mortality at 25 µg/mL worked out at 75.9%. In assay [2] (Tetranychus cinnabarinus, 48 h), this compound showed a mortality at 50 µg/mL of 88.9%. In assay [3] (Tetranychus cinnabarinus), this compound came in with a mortality at 6.25 µg/mL of 10.8%, a mortality at 12.5 µg/mL of 13.6%, a mortality at 25 µg/mL of 32.2% and a mortality at 50 µg/mL of 54.9%. In addition, the mortality at 100 µg/mL in assay [3] (Tetranychus cinnabarinus) is 75%. In assay [4] (Tetranychus cinnabarinus, 48 h), the mortality at 0.3125 µg/mL was 7.74%, the mortality at 0.625 µg/mL is 17.1%, the mortality at 1.25 µg/mL turned out to be 28.8% and the mortality at 2.5 µg/mL came out at 55.3%. For the same compound, the mortality at 5 µg/mL in assay [4] (Tetranychus cinnabarinus, 48 h) is 82.5%.
